Where two headings read alike, the source gives them in different places.
Assays:
[1] = system: adherent cells (e.g. KYSE-520 cells); experiment: Wound healing (scratch) assay (preliminary, Table 2); assay type: cell-based; details: 28 to 30 h, compared to 100 μM Migrastatin, tested 200, 100, 50, 25, 10 μM
Protocol: 2. Wound Healing Assay (Table 2)
The wound healing assay was performed based on the method described by Nakae et al. (Nakae et al., J. Antibiotics (2000), 53, 1130-1136). Briefly, adherent cells were grown in a suitable media to confluence (e.g. KYSE-520 cells in RPMI-1640 with 10% FBS). Cells were starved for 24 h in serum free media. A scratch (ca. 0.5 mm) was applied and the cell layer was washed twice with PBS after removal of the media. Fresh, serum free media with the test compound at the desired concentration was added and the cells were incubated for 28 to 30 h at 37° C., 5% CO2. The scratch size was compared to that observed for cells exposed to 100 μM Migrastatin. Test compounds associated with a scratch size equal to or larger than that observed for cells exposed to 100 μM Migrastatin were deemed to have cell migration inhibitory activity at least equal to Migrastatin.

HUVEC = experiment: Tube formation assay (preliminary, Table 1); assay type: cell-based, human; details: minimal concentration causing definite disturbance of tube network, 16-18 h, tested 200, 100, 50, 25, 10 μM
Protocol: 1. Tube Formation Assay (Table 1):
A protocol was designed based on the instructions from the provider (BD Bioscience, San Jose, Calif.). Briefly, wells of a 48 well culture dish were covert with 150 μL matrigel and the matrigel was gelatinized for 30 min at 37° C. A 80-90% confluent HUVEC (BD Bioscience, San Jose, Calif.) culture was trypsin treated, the detached cells were collected by centrifugation and resuspended in EGM-2 media (BD Bioscience, San Jose, Calif.). Cell concentration was adjusted to 100.000 cells/mL. 400 μL of the cell suspension were filled in the matrigel coated wells, and a solution of the inhibitor was added to the intended final concentration. The plates were incubated at 37° C. with 5% CO2 for 16-18 h. Media was removed, and the matrigel surface was washed twice with 500 μL PBS before cells were labeled with 250 μL 8 μM Calcein AM (Pierce, Rockford, Ill.) in PBS for 30 min at 37° C. After two additional washing steps (500 μL PBS) cells were visualized under an inverted microscope. Fluorescence was excited at 488 nm and recorded at 538 nm. The minimum effect concentration was defined as the minimal inhibitor concentration that caused a definite disturbance of the complexity of the formed tube network.

[2] = system: 4T1 mouse breast tumor cells; experiment: Boyden chamber cell migration assay with 4T1 tumor cells; assay type: cell-based; details: for IC50: chamber cell migration, 6-8 h, average of three experiments, read-out: IC50 (4T1 tumor cells)
Protocol: The biological evaluation of the compounds (in terms of their ability to inhibit cell migration) was accomplished in a Boyden chamber cell migration assay. In this assay, mouse breast tumor cells (4T1 cells) or endothelial cells (HUVECs) are seeded on the upper chamber of a transwell insert. Growth factor-containing serum is added to the lower chamber.
Chamber Cell Migration Assay (Tables 4 and 6): Cell migrations were assayed with Boyden chambers [8.0 μm pore size, polyethylene terephthalate membrane, FALCON cell culture insert (Becton-Dickinson)]. 4T1 mouse breast tumor cells or HUVECs were trypsinized and counted. 300 μl of 5-10×10^4 cells in serum-free medium was added to the upper chamber and 500 μl of medium with 10% fetal bovine serum (FBS) was added to the lower chamber. […] Cells on the inside of the transwell inserts were removed with a cotton swab, and cells on the underside of the insert were fixed and stained. Photographs of three random regions were taken and the number of cells was counted to calculate the average number of cells that have transmigrated.

[3] = rcm bond, Grubbs-II, toluene, 111.0 °C, 0.25 h
[4] = system: HUVECs (human umbilical vein endothelial cells); experiment: Boyden chamber cell migration assay with HUVECs; assay type: cell-based; details: chamber cell migration; average of three experiments; read-out: IC50 (HUVEC)
Protocol: Chamber Cell Migration Assay (Tables 4 and 6): Cell migrations were assayed with Boyden chambers [8.0 μm pore size, polyethylene terephthalate membrane, FALCON cell culture insert (Becton-Dickinson)]. 4T1 mouse breast tumor cells or HUVECs were trypsinized and counted. 300 μl of 5-10×10^4 cells in serum-free medium was added to the upper chamber and 500 μl of medium with 10% fetal bovine serum (FBS) was added to the lower chamber. The transwells were incubated for 6-8 h at 37° C. with different concentrations of chemical compound in both upper and lower chamber. Cells on the inside of the transwell inserts were removed with a cotton swab, and cells on the underside of the insert were fixed and stained. Photographs of three random regions were taken and the number of cells was counted to calculate the average number of cells that have transmigrated.

[5] = system: 4T1 tumor lung metastasis; experiment: 4T1 tumor lung metastasis in syngeneic mice (6-thioguanine clonogenic assay); assay type: in vivo, BALB/c mice; details: for lung metastasis colonies: lungs Day 28, mean and standard deviation
Text: Inhibition of metastasis of mouse breast tumors by migrastatin alogs in mice. 4T1 mouse breast tumor cell line was isolated from a single spontaneously arising mammary tumor from a BALB/BfC3H mouse (MMTV+).^62 The 4T1 tumor closely mimics human breast cancer in its anatomical site, immunogenecity, growth characteristics, and metastatic properties.^63 From the mammary gland, 4T1 tumor spontaneously metastasizes to a variety of target organs including the lung, bone, brain, and liver through primarily a hematogenous rout.^64
To assess the efficacy of therapeutic application of migrastatin analogs in the 4T1 murine mammary carcinoma models, we administered migrastatin analogs (macroketone and macrolactam) to BALB/c mice carrying the 4T1 tumors.
Female BALB/c mice (6-8 week old) were purchased from the Jackson Laboratory (Bar Harbor, Me.). All mice were housed at the Weill Medical College of Cornell University Animal Facilities in accordance with the Principles of Animal Care (NIH publication no. 85-23, revised 1985). 4T1 tumor cells (1×10^5) were injected subcutaneously into the abdominal mammary gland area of mice in 0.1 ml of a single-cell suspension in phosphate buffered saline (PBS) on Day 0. The dosage of tumor implantation was empirically determined to give rise to tumor of ˜10 mm in diameter in untreated wild type mice in 21-23 days. On Day 7, when the tumors averaged in size ˜4-5 mm in diameter, migrastatin analogs or control PBS saline were given every day by intraperitoneal injection at 10 mg/kg or 20 mg/kg per mouse until Day 25. On Day 28, the mice were sacrificed. This regiment of migrastatin analogs was well tolerated with no signs of overt toxicity. Every group included five mice. Primary tumors were measured using electronic calipers on the day when the mice were sacrificed. Tumor size was the square root of the product of two perpendicular diameters. Numbers of metastatic 4T1 cells in lung were determined by the clonogenic assay.^63 In brief, lungs were removed from each mouse on Day 28, finely minced and digested in 5 ml of enzyme cocktail containing 1× PBS and 1 mg/ml collagenase type IV for 2 hours at 37° C. on a platform rocker. After incubation, samples were filtered through 70 uM nylon cell strainers and washed twice with PBS. Resulting cells were suspended and plated serially diluted in 10 cm tissue culture dishes in medium RPMI1640 containing 60 uM thioguanine for clonogenic growth. 6-Thioguanine-resistant tumor cells formed foci after 14 days, at which time they were fixed with methanol and stained with 0.03% methylene blue for counting.
Treatment 4T1 tumor lung metaotmis in smgencie mice with Kigrastatin analogs (See, FIG. 4). 4T1 tumor cells (10^5) were injected s.c. in the abdominal mammary gland with 0.1 ml of a single-cell suspension. Macroketone or macrolactam at 10 mg/kg or 20 mg/kg was given i.p. on Day 7 when the tumor size was about 5 mm in diameter, and everyday until Day 25. On Day 28, the mice were sacrificed. Each group comprised five mice. Lung metastasis was measured by the 6-thiogunine clonogenic assay. The mean and standard deviation are presented. In the control group (daily PBS injection), there were 61300±18900 colonies.

[6] = Mouse plasma stability study (HPLC); assay type: in vitro ADME
Protocol: Mouse Plasma Stability Studies (Table 5): HPLC conditions: The sample is injected and separated using an Inertsil ODS3 6u 3×150 mm column with a mobile phase of MeCN and water (50% for migrastatin) at a flow of 0.4 mL/min, monitored at 220 nm at 0.02 AUFS (the retention time for migrastatin is ca. 4 min, the identity of this peak was confirmed by mass spectral analysis). Incubation and sample preparation conditions: A solution (ca. 30 mM) of chemical compound (Table 5) in DMSO is prepared. 2 μL of the solution is added to a mixture containing 200 μL of mouse plasma and 800 μL of PBS. The resulting solution is put into a water bath at 37° C., and 100 μL of sample is withdrawn at 10, 20, 30, 45, and 60 min. The precipitate is removed by centrifugation and 20 μL of the supernatant is injected onto the HPLC.

N-Methyl-migrastatin
Minimum effect concentration [1]: 100 µM | Minimum effect concentration (HUVEC): 200 µM

CO[C@H]1/C=C/CCCCC(=NO)CC/C(C)=C\[C@@H](C)[C@@H]1O [macrooxime (72), Macrooxime]
IC50 [2]: 2300 nM

CO[C@H]1C=CCCCCC(=O)NC/C(C)=C\[C@@H](C)[C@@H]1O[Si](C)(C)C(C)(C)C
ring closure, yield of all isomers ([3]; from C=CCCCCC(=O)NC/C(C)=C\[C@@H](C)[C@H](O[Si](C)(C)C(C)(C)C)[C@H](C=C)OC, 0.709 mM): 60%

CN1c2ccccc2C(=O)N2CCc3c([nH]c4ccccc34)[C@H]21 [evodiamine, reference compound]
IC50 ([2]; Mus musculus): 315 nM

COC1C=CCCCCC(=O)NCC(C)=CC(C)C1O (centres unmarked) [macrolactam (55), Macrolactam]
IC50 [4]: 18000 nM | IC50 [2]: 255 nM | inhibition of lung metastasis ([5]; 10 mg/kg i.p. daily Day 7-25): ~91% | lung metastasis colonies ([5]; 10 mg/kg i.p. daily Day 7-25): 5333±1778 colonies | inhibition of lung metastasis ([5]; 20 mg/kg i.p. daily Day 7-25): ~91% | lung metastasis colonies ([5]; 20 mg/kg i.p. daily Day 7-25): 5675±6263 colonies

CO[C@H]1/C=C/CCCCC(=O)OC/C(C)=C\[C@@H](C)[C@@H]1OC(C)=O [acetylated macrolactone (49), Acetylated Macrolactone]
IC50 [2]: 192 nM

CO[C@H]1C=CCCCCC(=O)O[C@H]([C@H](C)C(=O)CCCC2CC(=O)NC(=O)C2)/C(C)=C\[C@@H](C)[C@@H]1O[Si](C)(C)C(C)(C)C
ring closure, yield of all isomers ([3]; from C=CCCCCC(=O)O[C@@H](/C(C)=C\[C@@H](C)[C@H](O[Si](C)(C)C(C)(C)C)[C@H](C=C)OC)[C@H](C)C(=O)CCCC1CC(=O)NC(=O)C1, 0.48 mM): 79%

CO[C@H]1/C=C/CCCCC(O)CC/C(C)=C\[C@@H](C)[C@@H]1O (some centres unmarked) [macrocyclic secondary alcohol (69), Macrocyclic Secondary Alcohol]
IC50 [2]: 8900 nM

CO[C@H]1/C=C/CCCCC(O)(C(F)(F)F)CC/C(C)=C\[C@@H](C)[C@@H]1O (some centres unmarked) [macrocyclic CF3-alcohol (71), Macrocyclic CF3-Alcohol]
effect on 4T1 tumor cell migration in the chamber assay, in words ([2]; chamber assay): displays the same activity profile as macroketone 60 | IC50 [2]: 101 nM

CO[C@@H](/C=C/CCCCC(=O)O)[C@@H](O)[C@H](C)/C=C(/C)CO [hydrolyzed core (51), Hydrolyzed Core]
IC50 [2]: 378 nM

COC1C=CCCC=CC(=O)OCC(C)=CC(C)C1O (centres unmarked) [migrastatin core (45), Migrastatin Core]
IC50 [4]: 150 nM | stability (t1/2, mouse plasma) ([6]; mouse plasma/PBS, 37° C., sampled up to 60 min): 20 min | stability (mouse plasma), in words ([6]; stable = intensity of HPLC signal unchanged over 60 min of incubation): hydrolyzed rapidly

CO[C@H]1/C=C/CCCCC(C)(O)CC/C(C)=C\[C@@H](C)[C@@H]1O (some centres unmarked) [macrocyclic tertiary alcohol (70), Marocyclic Tertiary Alcohol]
IC50 [2]: 3100 nM

CO[C@H]1C=CCC/C=C/C(=O)O[C@H]([C@H](C)C(=O)CCCC2CC(=O)NC(=O)C2)/C(C)=C\[C@@H](C)[C@@H]1O[Si](C)(C)C(C)(C)C
ring closure, yield of all isomers ([3]; from C=CCC/C=C/C(=O)O[C@@H](/C(C)=C\[C@@H](C)[C@H](O[Si](C)(C)C(C)(C)C)[C@H](C=C)OC)[C@H](C)C(=O)CCCC1CC(=O)NC(=O)C1, 0.46 mM): 69%

N-Methyl-2,3-Dihydromigrastatin [N-methyl-2,3-dihydromigrastatin (42)]
IC50 [2]: 7000 nM

COC1C=CCCCCC(=O)OC(C(C)C(=O)CCCC2CC(=O)NC(=O)C2)C(C)=CC(C)C1O (centres unmarked) [2,3-dihydromigrastatin (41), 2,3-Dihydromigrastatin]
Minimum effect concentration [1]: 25 µM | IC50 [2]: 10000 nM | Minimum effect concentration (HUVEC): 50 µM

Source: patent publication US20070037783A1, “Migrastatin analogs and uses thereof” (priority 2003, published 2007)
